The results in this text go back to patent US8802711B2, “TRPV1 antagonists” (AbbVie Inc., priority 2011, dated 2014).

For test [1], the system named is Sprague-Dawley rats. The test is described as follows: Sodium iodoacetate-induced knee joint osteoarthritic pain model. The format is in vivo, rat. Particulars: 1 hour after dosing, % return to normalcy of hind limb grip force. The text has this:
(§1) Adult male Sprague-Dawley rats (250-300 g body weight, Charles River Laboratories, Portage, Mich.) were used. Animal handling and experimental protocols were approved by the Institutional Animal Care and Use Committee (IACUC) at Abbott Laboratories. For all surgical procedures, animals were maintained under isoflurane anesthesia (4-5% to induce, 1-3% to maintain), and the incision sites were sterilized using a 10% povidone-iodine solution prior to and after surgeries.
Unilateral knee joint osteoarthritis was induced in the rats by a single intra-articular (i.a.) injection of sodium iodoacetate (3 mg in 0.05 mL sterile isotonic saline) into the right knee joint cavity under light isoflurane anesthesia using a 26 G needle. […] Pain behavioral assessment of hind limb grip force was conducted by recording the maximum compressive force exerted on the hind limb strain gauge setup, in a commercially available grip force measurement system (Columbus Instruments, Columbus, Ohio), to elicit paw withdrawal. The grip force data was converted to a maximum hindlimb cumulative compressive force (CFmax) (gram force)/kg body weight for each animal. The analgesic effects of test compounds were determined 20 days following the i.a. injection of sodium iodoacetate. The vehicle control group for each compound being tested was assigned 0% whereas the age matched naïve group was assigned as being 100% (normal). The % effect for each dose group was then expressed as % return to normalcy compared to the naïve group. Test compounds were administered orally in 10% ethanol/20% Tween 80/70% polyethylene glycol-400 vehicle at a volume of 2 mL/kg. The assessment of the analgesic effects of test compounds was made 1 hour following oral administration. The assessment of the analgesic effects of test compounds can be made following a single dose or following repeated administration wherein the frequency of dosing is 1 to 2 times daily. The duration of such repeated daily dosing may last for any time greater than one day. A typical duration of repeated daily dosing is about 5 days to about 12 days.

In test [2] the test system is Sprague-Dawley rats. The test is described as follows: Rat tail immersion assay (noxious thermosensation). The class given is in vivo. Particulars: rat, 100 μmol/kg oral, one hour post dosing, 55° C. water bath, relative to vehicle. The procedure: as §1
Compounds were tested for their effects on noxious thermosensation using the tail immersion assay. Testing was performed one hour following oral administration of 100 μmol/kg of the compound in 10% ethanol/20% Tween-80/70% PEG-400 (2 mL/kg). Morphine (6 mg/kg) was administered interperitoneally (i.p.) using saline (2 mL/kg) as the vehicle. For testing, a circulating water bath was heated to 55° C. Thirty to sixty minutes post dosing, the rats were handled for a few seconds to calm them down and then cupped with their back against the tester's hand at a slight angle with head facing away from the tester. With rat in one hand and a 0.01 second stopwatch in the other hand, the tail was quickly immersed 6-8 cm in the water bath or to a distance leaving 2-3 cm of tail out of water. The timer was started simultaneously. When the rat flinched or attempted withdrawal, timer was immediately stopped and the rat's tail was quickly removed from water bath. This response latency (in seconds) was recorded. Process was repeated 3 times with 3-4 minutes between readings and the average response latency was calculated.
For a given example, a percent increase in the average response latency (in seconds) for tail withdrawal relative to a vehicle control was determined. % increase=[(tc−tv)/tv]×100%
tc=response latency (in seconds) with oral dosing of compounds
tv=response latency (in seconds) with oral dosing of vehicle
The % increases in tail withdrawal latency relative to vehicle control are divided into the following categories: […]

Test [3] relates to Sprague-Dawley rats. The experiment in a line: Capsaicin-induced secondary mechanical hypersensitivity. The class given is in vivo, rat.
Excerpt: as §1
Rats were allowed to acclimate to the study room for 1 hour. They were then briefly restrained, and capsaicin was administered at 10 μg in 10 μL of vehicle (10% ethanol and 2-hydroxypropyl cyclodextrin) by intraplantar injection into the center of the right hind paw. Secondary mechanical hyperalgesia was measured at the heel away from the site of injection at 180 minutes following the administration of capsaicin (Joshi et al 2006, Neuroscience 143, 587-596). Compounds were administered orally (p.o.) one hour before testing ([…]).
Tactile allodynia was measured using calibrated von Frey filaments (Stoelting, Wood Dale, Ill.) as described in Chaplan, S. R., F. W. Bach, J. M. Pogrel, J. M. Chung and T. L. Yaksh, Quantitative assessment of tactile allodynia in the rat paw, J. Neurosci. Methods, 1994, 53, 55. Rats were placed into inverted individual plastic containers (20×12.5×20 cm) on top of a suspended wire mesh grid, and acclimated to the test chambers for 20 minutes. The von Frey filaments with different bending forces (starting with the lowest first and then progressively increasing) were presented perpendicularly to the plantar surface of the selected hind paw, and then hold in this position for approximately 8 sec with enough force to cause a slight bend in the filament. Positive responses included an abrupt withdrawal of the hind paw from the stimulus, or flinching behavior immediately following removal of the stimulus.

Test [4] concerns Sprague-Dawley rats. The test is described as follows: Chronic constriction injury model of neuropathic pain. The settings on record: 100 μmol/kg p.o., 1 hour after dosing. The format is in vivo, rat.
Excerpt: as §1
A model of chronic constriction injury-induced (CCI) neuropathic pain was produced in rats by following the method of Bennett and Xie (Pain, 1988, 33:87). Following sterilization and anesthetic procedures, a 1.5 cm incision was made dorsal to the pelvis, and the biceps femoris and gluteous superficialis (right side) were separated. The right common sciatic nerve was exposed/isolated, and loosely ligated by 4 ligatures of chromic gut (5-0) with <1 mm spacing using hemostats and forceps. […]
Tactile allodynia was measured using calibrated von Frey filaments (Stoelting, Wood Dale, Ill.) as described in Chaplan, S. R., F. W. Bach, J. M. Pogrel, J. M. Chung and T. L. Yaksh, Quantitative assessment of tactile allodynia in the rat paw, J. Neurosci. […]

Structures are written as SMILES.

`Cn1ncc2c(NC(=O)N[C@@H]3CC[C@H](c4ccccc4)C3)cccc21` [Example 4, 1-(1-methyl-1H-indazol-4-yl)-3-[(1R,3S)-3-phenylcyclopentyl]urea]: the “% effect” value in the test with Sprague-Dawley rats [1] (10 mg/kg p.o.) is given as 50%. Further, the “% Increase in tail withdrawal latency” value in the test on Sprague-Dawley rats [2] is “−”.
Regarding `Cc1cc2c(NC(=O)N[C@@H]3CC[C@H](c4ccccc4)C3)c(F)ccc2cn1` [Example 6, 1-(6-fluoro-3-methylisoquinolin-5-yl)-3-[(1R,3S)-3-phenylcyclopentyl]urea], the “% Increase in tail withdrawal latency” value in the test with Sprague-Dawley rats [2] is on record as “−”. Moreover, in the test with Sprague-Dawley rats [3] (10 μmol/kg p.o.), the “% effect” value is listed as 59%.
Take `O=C(Nc1cccc2[nH]ncc12)N[C@H]1CC[C@H](c2ccccc2)C1` [Example 14, 1-(1H-indazol-4-yl)-3-[(1S,3S)-3-phenylcyclopentyl]urea]: in the test on Sprague-Dawley rats [2], the “% Increase in tail withdrawal latency” value is given as “−”. Also, the results for the “% effect” value in the test with Sprague-Dawley rats [3] (100 μmol/kg p.o.) and with Sprague-Dawley rats [4] were 48% and 53%, respectively.
Consider `O=C(Nc1cccc2[nH]ncc12)N[C@@H]1CC[C@@H](c2ccccc2)C1` [Example 21, 1-(1H-indazol-4-yl)-3-[(1R,3R)-3-phenylcyclopentyl]urea], for which the “% effect” value in the test with Sprague-Dawley rats [1] (10 mg/kg p.o.) is reported as 37%. For the same compound, the change in vivo at 100 µmol/kg in the test on Sprague-Dawley rats [2] (1 h, read-out: % Increase in tail withdrawal latency) is 10 to 25%.
Take `O=C(Nc1cccc2[nH]ncc12)N[C@H]1CC[C@@H](c2ccccc2)C1` [Example 28, 1-(1H-indazol-4-yl)-3-[(1S,3R)-3-phenylcyclopentyl]urea]: the “% effect” value with Sprague-Dawley rats [1] (100 μmol/kg p.o.) came to 78%; with Sprague-Dawley rats [3] (100 μmol/kg p.o.), 81%; with Sprague-Dawley rats [4], 54%. Further, the “% Increase in tail withdrawal latency” value with Sprague-Dawley rats [2] was “−”.
